Data published in the NIST ThermoML archive (doi:10.1021/je400055v).
± gives the expanded uncertainty stated by the source.

Experiment: xn = mol fraction of the nth substance listed
Settings: Liquid, Vibrating tube method

CCCCCCCCCCC [undecane] + CCCCCCC
Settings	mass density [kg/m3]
362.91 K, 4000 kPa, x2 = 0.7482	649.6 ± 0.3
362.91 K, 4027 kPa, x2 = 0.2346	681.7 ± 0.3
362.91 K, 5000 kPa, x2 = 0.7482	650.9 ± 0.3
362.91 K, 5028 kPa, x2 = 0.2346	682.8 ± 0.3
362.91 K, 6000 kPa, x2 = 0.7482	652.2 ± 0.3
362.91 K, 6029 kPa, x2 = 0.2346	683.9 ± 0.3
362.91 K, 7000 kPa, x2 = 0.7482	653.5 ± 0.3
362.91 K, 7031 kPa, x2 = 0.2346	685 ± 0.3
362.91 K, 8000 kPa, x2 = 0.7482	654.7 ± 0.3
362.91 K, 8032 kPa, x2 = 0.2346	686.1 ± 0.3
362.91 K, 9000 kPa, x2 = 0.7482	656 ± 0.3
362.91 K, 9033 kPa, x2 = 0.2346	687.1 ± 0.3
362.91 K, 10000 kPa, x2 = 0.7482	657.2 ± 0.4
362.91 K, 10035 kPa, x2 = 0.2346	688.2 ± 0.3
362.91 K, 11000 kPa, x2 = 0.7482	658.4 ± 0.4
362.91 K, 11036 kPa, x2 = 0.2346	689.2 ± 0.3
362.91 K, 12000 kPa, x2 = 0.7482	659.5 ± 0.4
362.91 K, 12037 kPa, x2 = 0.2346	690.2 ± 0.3
362.91 K, 13000 kPa, x2 = 0.7482	660.7 ± 0.4
362.91 K, 13038 kPa, x2 = 0.2346	691.2 ± 0.4
362.91 K, 14000 kPa, x2 = 0.7482	661.8 ± 0.4
362.91 K, 14040 kPa, x2 = 0.2346	692.2 ± 0.4
362.91 K, 15000 kPa, x2 = 0.7482	662.9 ± 0.4
362.91 K, 15041 kPa, x2 = 0.2346	693.2 ± 0.4
362.91 K, 16000 kPa, x2 = 0.7482	664 ± 0.4
362.91 K, 16043 kPa, x2 = 0.2346	694.1 ± 0.4
362.91 K, 17000 kPa, x2 = 0.7482	665.1 ± 0.4
362.91 K, 17044 kPa, x2 = 0.2346	695.1 ± 0.4
362.91 K, 18000 kPa, x2 = 0.7482	666.2 ± 0.4
362.91 K, 18046 kPa, x2 = 0.2346	696 ± 0.4
362.91 K, 19000 kPa, x2 = 0.7482	667.2 ± 0.4
362.91 K, 19047 kPa, x2 = 0.2346	696.9 ± 0.4
362.91 K, 20000 kPa, x2 = 0.7482	668.3 ± 0.4
362.91 K, 20049 kPa, x2 = 0.2346	697.8 ± 0.4
362.91 K, 21000 kPa, x2 = 0.7482	669.3 ± 0.5
362.91 K, 21083 kPa, x2 = 0.2346	698.8 ± 0.4
362.91 K, 22000 kPa, x2 = 0.7482	670.3 ± 0.5
362.91 K, 22086 kPa, x2 = 0.2346	699.6 ± 0.4
362.91 K, 23000 kPa, x2 = 0.7482	671.3 ± 0.5
362.91 K, 23089 kPa, x2 = 0.2346	700.5 ± 0.4
362.91 K, 24000 kPa, x2 = 0.7482	672.2 ± 0.5
362.91 K, 24092 kPa, x2 = 0.2346	701.4 ± 0.4
362.91 K, 25000 kPa, x2 = 0.7482	673.2 ± 0.5
362.91 K, 25095 kPa, x2 = 0.2346	702.2 ± 0.5
362.92 K, 1001 kPa, x2 = 0.05	686.5 ± 0.3
362.92 K, 2001 kPa, x2 = 0.05	687.6 ± 0.3
362.92 K, 3000 kPa, x2 = 0.05	688.7 ± 0.3
362.92 K, 4000 kPa, x2 = 0.05	689.8 ± 0.3
362.92 K, 5000 kPa, x2 = 0.05	690.9 ± 0.3
362.92 K, 6000 kPa, x2 = 0.05	692 ± 0.3
362.92 K, 7000 kPa, x2 = 0.05	693 ± 0.3
362.92 K, 8001 kPa, x2 = 0.05	694.1 ± 0.3
362.92 K, 9000 kPa, x2 = 0.05	695.1 ± 0.3
362.92 K, 10000 kPa, x2 = 0.05	696.1 ± 0.3
362.92 K, 11000 kPa, x2 = 0.05	697.1 ± 0.3
362.92 K, 12000 kPa, x2 = 0.05	698.1 ± 0.3
362.92 K, 13000 kPa, x2 = 0.05	699.1 ± 0.4
362.92 K, 14000 kPa, x2 = 0.05	700 ± 0.4
362.92 K, 15000 kPa, x2 = 0.05	701 ± 0.4
362.92 K, 16000 kPa, x2 = 0.05	701.9 ± 0.4
362.92 K, 17000 kPa, x2 = 0.05	702.8 ± 0.4
362.92 K, 18000 kPa, x2 = 0.05	703.7 ± 0.4
362.92 K, 19000 kPa, x2 = 0.05	704.6 ± 0.4
362.92 K, 20000 kPa, x2 = 0.05	705.5 ± 0.4
362.92 K, 21000 kPa, x2 = 0.05	706.4 ± 0.4
362.92 K, 22001 kPa, x2 = 0.05	707.3 ± 0.4
362.92 K, 23000 kPa, x2 = 0.05	708.1 ± 0.4
362.92 K, 24000 kPa, x2 = 0.05	708.9 ± 0.4
362.92 K, 25000 kPa, x2 = 0.05	709.8 ± 0.4
362.94 K, 2001 kPa, x2 = 0.5063	664.4 ± 0.3
362.94 K, 3000 kPa, x2 = 0.5063	665.6 ± 0.3
362.94 K, 4000 kPa, x2 = 0.5063	666.8 ± 0.3
362.94 K, 5000 kPa, x2 = 0.5063	668 ± 0.3
362.94 K, 6000 kPa, x2 = 0.5063	669.2 ± 0.3
362.94 K, 7000 kPa, x2 = 0.5063	670.4 ± 0.3
362.94 K, 8001 kPa, x2 = 0.5063	671.5 ± 0.3
362.94 K, 9000 kPa, x2 = 0.5063	672.6 ± 0.3
362.94 K, 10000 kPa, x2 = 0.5063	673.8 ± 0.3
362.94 K, 11000 kPa, x2 = 0.5063	674.8 ± 0.3
362.94 K, 12000 kPa, x2 = 0.5063	675.9 ± 0.4
362.94 K, 13000 kPa, x2 = 0.5063	677 ± 0.4
362.94 K, 14000 kPa, x2 = 0.5063	678 ± 0.4
362.94 K, 15000 kPa, x2 = 0.5063	679.1 ± 0.4
362.94 K, 16000 kPa, x2 = 0.5063	680.1 ± 0.4
362.94 K, 17001 kPa, x2 = 0.5063	681.1 ± 0.4
362.94 K, 18000 kPa, x2 = 0.5063	682.1 ± 0.4
362.94 K, 19000 kPa, x2 = 0.5063	683.1 ± 0.4
362.94 K, 20000 kPa, x2 = 0.5063	684 ± 0.4
362.94 K, 21001 kPa, x2 = 0.5063	685 ± 0.4
362.94 K, 22050 kPa, x2 = 0.5063	685.9 ± 0.4
362.94 K, 23000 kPa, x2 = 0.5063	686.9 ± 0.5
362.94 K, 24000 kPa, x2 = 0.5063	687.8 ± 0.5
362.94 K, 25000 kPa, x2 = 0.5063	688.7 ± 0.5
